The supplement of paper PMC11451515

Tested on: P12-Ichikawa
Test: cell viability relative to DMSO control; higher = less cytotoxic
Conditions: 48 h
Method in brief: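 Cells were incubated for 48 h at 37°C before CellTiter-Glo One luminescence was read. The cells were NOMO1 or SEM (500 cells/well) or P12-Ichikawa (1000 cells/well) leukemia cells, adapted for at least four passages in each medium and seeded in 1536-well plates (5 μl). Dosing used library compounds in DMSO applied by pin over 11 threefold points, 47 μM to 0.79 nM. Viability is the per-plate percentage of DMSO wells, with cell-free wells as background.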

[1] = HPLM + 10% dialyzed FBS, 0.000781 µM
[2] = HPLM + 10% dialyzed FBS, 0.00234 µM
[3] = HPLM + 10% dialyzed FBS, 0.00702 µM
[4] = HPLM + 10% dialyzed FBS, 0.0211 µM
[5] = HPLM + 10% dialyzed FBS, 0.0632 µM
[6] = HPLM + 10% dialyzed FBS, 0.19 µM
[7] = HPLM + 10% dialyzed FBS, 0.569 µM
[8] = HPLM + 10% dialyzed FBS, 1.71 µM
[9] = HPLM + 10% dialyzed FBS, 5.12 µM
[10] = HPLM + 10% dialyzed FBS, 15.4 µM
[11] = HPLM + 10% dialyzed FBS, 46.1 µM
[12] = RPMI 5 mM glucose + 10% FBS, 0.000781 µM
[13] = RPMI 5 mM glucose + 10% FBS, 0.00234 µM
[14] = RPMI 5 mM glucose + 10% FBS, 0.00702 µM
[15] = RPMI 5 mM glucose + 10% FBS, 0.0211 µM
[16] = RPMI 5 mM glucose + 10% FBS, 0.0632 µM
[17] = RPMI 5 mM glucose + 10% FBS, 0.19 µM
[18] = RPMI 5 mM glucose + 10% FBS, 0.569 µM
[19] = RPMI 5 mM glucose + 10% FBS, 1.71 µM
[20] = RPMI 5 mM glucose + 10% FBS, 5.12 µM
[21] = RPMI 5 mM glucose + 10% FBS, 15.4 µM
[22] = RPMI 5 mM glucose + 10% FBS, 46.1 µM
[23] = RPMI 5 mM glucose + 10% dialyzed FBS, 0.000781 µM
[24] = RPMI 5 mM glucose + 10% dialyzed FBS, 0.00234 µM
[25] = RPMI 5 mM glucose + 10% dialyzed FBS, 0.00702 µM
[26] = RPMI 5 mM glucose + 10% dialyzed FBS, 0.0211 µM
[27] = RPMI 5 mM glucose + 10% dialyzed FBS, 0.0632 µM
[28] = RPMI 5 mM glucose + 10% dialyzed FBS, 0.19 µM
[29] = RPMI 5 mM glucose + 10% dialyzed FBS, 0.569 µM
[30] = RPMI 5 mM glucose + 10% dialyzed FBS, 1.71 µM
[31] = RPMI 5 mM glucose + 10% dialyzed FBS, 5.12 µM
[32] = RPMI 5 mM glucose + 10% dialyzed FBS, 15.4 µM
[33] = RPMI 5 mM glucose + 10% dialyzed FBS, 46.1 µM

SMILES	cell viability [1] [%]	cell viability [2] [%]	cell viability [3] [%]	cell viability [4] [%]	cell viability [5] [%]	cell viability [6] [%]	cell viability [7] [%]	cell viability [8] [%]	cell viability [9] [%]	cell viability [10] [%]	cell viability [11] [%]	cell viability [12] [%]	cell viability [13] [%]	cell viability [14] [%]	cell viability [15] [%]	cell viability [16] [%]	cell viability [17] [%]	cell viability [18] [%]	cell viability [19] [%]	cell viability [20] [%]	cell viability [21] [%]	cell viability [22] [%]	cell viability [23] [%]	cell viability [24] [%]	cell viability [25] [%]	cell viability [26] [%]	cell viability [27] [%]	cell viability [28] [%]	cell viability [29] [%]	cell viability [30] [%]	cell viability [31] [%]	cell viability [32] [%]	cell viability [33] [%]
COC(=O)CCC1=C(C)C2=CC3=NC(=CC4=C(C)C(=C([NH]4)C=C\5N=C(C=C1[NH]2)\C(=C5C)CCC(O)=O)C=C)\C6=C\C=C(/[C@@H](C(=O)OC)[C@@]36C)C(=O)OC	98.8	103	101	111	102	105	109	106	101	98.7	93.3	93.3	101	104	100	97.1	100	103	96.8	88.9	77.1	60.9	88	94.7	97.8	95.6	103	96.9	105	104	94.6	84.9	82.9
COc1ccc(/C=C/C(=O)Nc2ccccc2C(=O)O)cc1OC	110	111	108	112	121	108	93.1	100	108	99.3	102	112	108	113	115	113	101	107	106	107	105	102	103	101	113	114	111	110	98.5	80.4	103	98.5	94.8
COc1ccc(-n2c(C)c([N+](=O)[O-])c3ccc(O)cc32)cc1												127	118	118	126	118	123	122	121	115	111	105	119	121	120	122	114	118	121	122	106	112	102
COc1c(N2C[C@@H]3CCCN[C@@H]3C2)c(F)cc2c(=O)c(C(=O)O)cn(C3CC3)c12.Cl.O	98.4	114	107	109	103	114	102	99.4	78.9	63	70.6	116	112	109	112	106	107	91.9	92.2	53.8	12.9	54	98.7	99.5	107	109	98.6	97	91	88.5	53.4	17.5	42.3
Cc1nnc(C(C)C)n1[C@@H]1C[C@H]2CC[C@@H](C1)N2CC[C@H](NC(=O)C1CCC(F)(F)CC1)c1ccccc1	88.3	99.8	107	111	105	102	113	110	101	89.1	63.8	85	90.2	94.3	100	95.9	103	107	99.4	104	92	59.2	71.4	96	89.1	101	94.5	105	97.4	103	101	81.1	48.3
CC(C)[C@H](C(=O)Nc1ccc(C(=O)NO)cc1)c1ccccc1	117	120	121	129	125	125	118	87.9	7.68	5.55	6.05																						
COCC(=O)NC/C=C/c1ccc2ncnc(Nc3ccc(Oc4ccc(C)nc4)c(C)c3)c2c1	99.6	99.3	101	107	101	92.3	103	98.6	95.7	93.1	64.5	91.7	112	106	105	105	100	91.5	101	81.6	77.2	43.1	102	109	115	113	105	99	97.9	101	88	79.7	51.5
O=C(O)c1cccc(-c2noc(-c3ccccc3F)n2)c1	99.7	106	104	100	102	105	102	98.6	101	100	95.3	96.5	98.2	97.5	106	106	106	101	98.7	90.9	93	92.7	102	105	94.9	103	103	97.1	95.1	102	90.6	102	98.7
